Experimental data from paper PMC7827417, “Steroid Glycosides Hyrcanoside and Deglucohyrcanoside: On Isolation, Structural Identification, and Anticancer Activity” (Foods, 2021).

Tests used:
[1] = system: CCRF-CEM; assay: MTS cytotoxic assay, CCRF-CEM; assay type: cell-based; settings: Homo sapiens, 72 h
Source text: (§1) If not indicated otherwise, the cell lines were purchased from the American Type Culture Collection (ATCC). […] K562 is the erythroid-myeloid precursor cell line derived from chronic myeloid leukemia carrying the BCR-ABL hybrid gene. A549, MCF-7, PC-3, 5637, U-2 OS, and MiaPaCa-2 are cells derived from lung, breast, prostate, bladder carcinoma, osteosarcoma, and pancreatic adenocarcinoma, respectively. HEK 293T are transformed human embryonic kidney cells, and L929 (Sigma, St. Louis, MS, USA) are transformed mouse fibroblasts. HCT116, cells from colorectal carcinoma, and their p53 gene knock-out variant (HCT116p53-/-) were purchased from Horizon Discovery. This cell line is a model of human tumors bearing p53 loss-of-function mutations or biallelic deletion of the p53 gene, frequently associated with poor prognosis. The MRC-5 and BJ cells were used as noncancerous cells; more specifically, they are human fibroblasts from the lungs and foreskin, respectively. According to the supplier’s recommendations, all cells were cultured at 37 °C in a 5% CO2 atmosphere and 100% humidity. The culture media used were: DMEM, RPMI 1640, and MEM (according to a cell line); all were supplemented with 5 g L^−1 glucose, 10% fetal calf serum, 2 mM glutamine, 100 U mL^−1 penicillin, 100 µg mL^−1 streptomycin, and NaHCO3. Cells were passaged every two or three days using 0.25% trypsin plus 0.01% EDTA (ethylenediamine tetraacetic acid) in phosphate-buffered saline.
(§2) To evaluate compound cytotoxicity, cells were seeded in 384-well microtiter plates in a volume of […]. The next day, aliquots of the tested derivatives were transferred with Echo550 acoustic liquid handler (Labcyte) to obtain dose response curves with dilution factor 4. The experiments were performed in technical duplicates and three or more biological replicates. After 72 h of incubation in a humidified incubator, […] of the MTS/PMS stock solution were pipetted into each well. After another 1–4 h of incubation, the absorbance at 490 nm was measured using an EnVision Multilabel Plate Reader (PerkinElmer).

[2] = system: A549; assay: MTS cytotoxic assay, A549; assay type: cell-based; settings: Homo sapiens, A549, 72 h
Source text: as §1, §2

[3] = system: HCT116; assay: MTS cytotoxic assay, HCT116; assay type: cell-based; settings: Homo sapiens, HCT-116, 72 h
Source text: as §1, §2

[4] = system: MiaPaCa-2; assay: MTS cytotoxic assay, MiaPaCa-2; assay type: cell-based; settings: Homo sapiens, MIA PaCa-2, 72 h
Source text: as §1, §2

[5] = system: MCF-7; assay: MTS cytotoxic assay, MCF-7; assay type: cell-based; settings: Homo sapiens, MCF7, 72 h
Source text: as §1, §2

[6] = system: U-2 OS; assay: MTS cytotoxic assay, U-2 OS; assay type: cell-based; settings: Homo sapiens, U2OS, 72 h
Source text: as §1, §2

[7] = system: 5637; assay: MTS cytotoxic assay, 5637; assay type: cell-based; settings: Homo sapiens, 72 h
Source text: as §1, §2

[8] = system: PC-3; assay: MTS cytotoxic assay, PC-3; assay type: cell-based; settings: Homo sapiens, PC-3, 72 h
Source text: as §1, §2

[9] = system: HEK 293T; assay: MTS cytotoxic assay, HEK 293T; assay type: cell-based; settings: Homo sapiens, HEK-293T, 72 h
Source text: as §1, §2

[10] = system: MRC-5; assay: MTS cytotoxic assay, MRC-5; assay type: cell-based; settings: Homo sapiens, MRC5, 72 h
Source text: as §1, §2

[11] = system: L929; assay: MTS cytotoxic assay, L929; assay type: cell-based, mouse; settings: Mus musculus, L929, 72 h
Source text: as §1, §2

[12] = system: CCRF-CEM cells; assay: Cell cycle arrest and cell death analysis by flow cytometry (propidium iodide, pH3Ser10); assay type: cell-based, human; settings: % of positive cells
Procedure: Together with the CG-treated cells, a vehicle-treated sample was harvested at the same time point. After 24 h, the cells were washed with cold phosphate-buffered saline, fixed dropwise in 70% ethanol, and stored overnight at −20 °C. The cells were then washed with hypotonic citrate buffer, treated with RNAse (50 µg mL^−1), and stained with propidium iodide. Flow cytometry using a 488 nm laser (FACS-Calibur, Becton Dickinson, NJ, USA) was used for measurement. The cell cycle was analyzed by the ModFitLT program (Verity), and apoptosis was measured in a logarithmic model expressing the percentage of particles with a lower propidium content than cells in the G0/G1 phase (<G1) of the cell cycle in the CellQuest program (Becton Dickinson). Half of the sample was used to label cells with pH3^Ser10-FITC antibody (Exbio) for subsequent flow cytometry analysis of mitotic cells.

[13] = system: CCRF-CEM cells; assay: BrDU incorporation analysis (DNA synthesis); assay type: cell-based, human; settings: % of positive cells
Procedure: The cells were cultured in the same way as the cell cycle analysis method. Just before harvesting, 5-bromo-2′-deoxyuridine (BrDU) of 10 µM concentration was added to the cells for pulse-labeling for 30 min. Then, the cells were fixed with −20 °C cold 70% ethanol and stored in a freezer for 16 h. Before antibody staining, the samples were incubated on ice for 30 min, washed once with phosphate-buffered saline (PBS), and re-suspended in 2 M of HCl for 30 min at room temperature to hydrolyze their DNA. After neutralization with 0.1 M of Na2B4O7 (borax) solution, the cells were washed with PBS containing 0.5% Tween-20 and 1% BSA. This was followed by staining with the primary anti-BrDU antibody (Exbio) for 30 min at room temperature. Then, the cells were washed with PBS and stained with a secondary anti-mouse antibody conjugated to fluorescein isothiocyanate (Merck-Sigma, St. Louis, MS, USA) at room temperature in the dark. After another washing with PBS and incubation with propidium iodide (0.1 mg·mL^−1) and RNAse A (0.5 mg·mL^−1) for 1 h at room temperature in the dark, the cells were analyzed by flow cytometry using a 488 nm laser (FACSCalibur, Becton Dickinson, Franklin Lakes, NJ, USA).

[14] = system: CCRF-CEM cells; assay: BrU incorporation analysis (RNA synthesis); assay type: cell-based, human; settings: % of positive cells
Procedure: The cells were cultured and processed as described above. Before harvesting, the cells were pulse-labeled with 1 mM of 5-bromouridine (BrU) for 30 min. The cells were then fixed in 1% buffered paraformaldehyde with 0.05% NP-40 at room temperature for 15 min, and then stored at 4 °C overnight. Before measurement, they were washed with 1% glycine in PBS, washed again with PBS, and stained with primary anti-BrdU antibody cross-reactive to BrU (Exbio) for 30 min at room temperature in the dark. From this point on, the experiment was performed exactly as in the method described above.

C[C@H]1O[C@@H](O[C@H]2[C@@H](O)C[C@H](O[C@H]3[C@@H](O)C[C@H](O[C@H]4CC[C@@]5(C)[C@H](CC[C@@H]6[C@@H]5CC[C@]5(C)[C@@H](C7=CC(=O)OC7)CC[C@]65O)C4)O[C@@H]3C)O[C@@H]2C)C[C@H](O)[C@@H]1O [Dg, digitoxin]
IC50 [1]: 20 ± 3.5 nM | IC50 [2]: 19 ± 2 nM | IC50 [3]: 20 ± 1.5 nM | IC50 [4]: 79 ± 2.8 nM | IC50 [5]: 78 ± 1.1 nM | IC50 [6]: 45 ± 2.1 nM | IC50 [7]: 58 ± 1.6 nM | IC50 [8]: 69 ± 2.2 nM | IC50 [9]: 69 ± 2.1 nM | IC50 [10]: 78 ± 1.9 nM | IC50 [11]: > 10000 nM | < G1 (apoptotic cells) ([12]; 1 × IC50, 24 h): 7.56% | G0/G1 ([12]; 1 × IC50, 24 h): 33.21% | G2/M ([12]; 1 × IC50, 24 h): 30.51% | M (Phospho-Histone3 (Ser10)) ([12]; 1 × IC50, 24 h): 1.97% | S ([12]; 1 × IC50, 24 h): 36.28% | < G1 (apoptotic cells) ([12]; 5 × IC50, 24 h): 10.35% | G0/G1 ([12]; 5 × IC50, 24 h): 33.71% | G2/M ([12]; 5 × IC50, 24 h): 44.03% | M (Phospho-Histone3 (Ser10)) ([12]; 5 × IC50, 24 h): 1.28% | S ([12]; 5 × IC50, 24 h): 22.26% | BrDU ([13]; 1 × IC50, 24 h): 35.91% | BrDU ([13]; 5 × IC50, 24 h): 23.52% | BrU ([14]; 1 × IC50, 24 h): 42.99% | BrU ([14]; 5 × IC50, 24 h): 3.88%
